Read-outs that look alike come from different tables or passages of the source.
How the values were obtained:
[1] = system: H. pylori (H-88 clinical isolate); test: H. pylori growth in liquid medium, CFU counts, 48 hours; format: cell-based; conditions: 48 hours incubation, FIG. 1A
H. pylori = H. pylori growth with omeprazole, pentagastrin, amoxycillin and combinations, monitored spectrophotometrically; format: cell-based; conditions: single or triple-combined treatment; 18, 24, 46 hours; FIG. 3
Protocol: In an attempt to optimize the antibacterial formulation for eradication of H. pylori, the effect of pentagastrin and omeprazole provided in combination with amoxicillin was tested. Amoxicillin is a commonly accepted antibiotic used for H. pylori treatment. To investigate the effect of triple administration we tested the growth of bacteria in the presence of omeprazole, pentagastrin, amoxycillin, and their possible combinations was tested. Bacteria grown in the absence of any agent was used as a negative control. The level of bacterial growth was monitored spectrophotometrically after 18, 24, and 46 hours of treatment.

gastric acid secretion [2] = test: Gastric acid secretion after oral PG in fasted rats, no pylorus ligation; format: in vivo, Wistar Hanover rats; conditions: PG 50 μg P.O.
Protocol: (§1) Male and female Wistar Hanover rats, 7-10 weeks of age, were obtained from Harlan Laboratories (Rehovot, Israel). Animals were fed standard chow and received unlimited water supply. The animals were kept in automatically controlled temperature (between 20-24° C.), a 12-hour light/dark cycle, and 15 air changes an hour.
(§2) Rats were fasted (with water freely available) for 24 hours before experimentation. PG or saline were introduced into the stomach by means of a steel feeding needle. Thereafter, the animals were injected with Domitor and Ketaset; the abdominal wall was dissected and gastric fluid (approximately 30 μl) was collected by puncture with a needle (0.45×13 2006-09 Artsana S.P.A., Grandate (CO), Italy) at the indicated time points. Gastric juice was kept frozen at −80° C. until use. In some experiments, the rats were first anesthetized and dissected, after which test reagents were introduced by direct injection into the stomach. […]
(§3) Frozen gastric juice was defrosted at room temperature, mixed by vortexing, and centrifuged for 5 minutes at 14,000 RPM. […] The pH was measured, and NaOH (0.001 N) was added to the sample until pH 7 was reached, as determined by measuring pH using a pH meter (pH211, Hanna Instruments, 35030 Sameola di Rubano, Italy). […]

gastric acid secretion [3] = test: Gastric acid secretion after oral PG in pylorus-ligated rats; format: in vivo, Wistar Hanover rats; conditions: PG 50 μg P.O., vs saline
Protocol: as §1, §2, §3

[4] = Blood glucose levels in pylorus-ligated rats challenged with oral PG; format: in vivo; conditions: compared to controls, FIG. 6
Protocol: The observed effects of stimulation of gastric acid secretion may occur by different mechanisms. PG may be digested by gastric enzymes and the resulting free amino acids may stimulate acid secretion directly. Alternatively, the intact peptide may be actually absorbed from the gastric lumen and exert its effect on CCK-B receptors on the ECL and parietal cells. […] Since blood glucose levels reflect the activity of peripheral insulin, glucose levels were measured in the pylorus-ligated rats following the administration of PG or saline. These measurements served as a surrogate marker for PG-induced insulin release via activation of CCK-B receptors on the ECL and parietal cells. […] This observation supports the notion that the PG was absorbed intact and thereby could directly exert its effect on gastric tissue and stimulate secretion of gastric acid. […] B. Co-Administration of PG and Omeprazole

acid secretion = conditions: oral PG, cited from earlier work
gastric mucosa = conditions: applied to the luminal surface, in vitro bullfrog model; cited from earlier work

Molecule	bacterial growth, CFU counts [1]	inhibition of bacterial growth (spectrophotometric) (H. pylori)	time of maximal effect on acid secretion after oral PG (gastric acid secretion [2]; p=0.05)	secretion of acid into the gastric lumen (gastric acid secretion [2]; vs saline and S.C. PG, FIG. 4)	gastric acid output (gastric acid secretion [3]; all time points, p<0.05, FIG. 5B)	gastric pH (gastric acid secretion [3]; p<0.05, FIG. 5A)	blood glucose levels [4]	effect on acid secretion (acid secretion; four normal subjects)	effect on acid secretion (acid secretion; three patients with gastrointestinal abnormalities)	effect on gastric mucosa (gastric mucosa)
βAla-Trp-Met-Asp-PheNH2 [PG]	inhibited bacterial growth to an extent similar to that of omeprazole	moderate inhibition	30 min	significant secretion of acid	significantly increased	decreased	decreased	no effect	some effect	did not affect the gastric mucosa
caerulein	inhibited bacterial growth to an extent similar to that of omeprazole									
CC1(C)S[C@@H]2[C@H](NC(=O)[C@H](N)c3ccc(O)cc3)C(=O)N2[C@H]1C(=O)O [amoxicillin]		moderate inhibition								

Reference: patent US7271146B2, “Methods for treatment of Helicobacter pylori-associated disorders” (Vecta Ltd., priority 2002, dated 2007)
